From patent publication US9604961B2, “Histone demethylase inhibitors” (Celgene Quanticel Research, Inc., priority 2012, dated 2017)

Experiments:
Type in all cases: biochemical
Jarid1A = Jarid1A (Homo sapiens (Human), UniProt P29375); assay: Jarid1A in vitro enzyme inhibition assay (TR-FRET)
Description: The enzymatic assay of Jarid1A activity is based upon Time Resolved-Fluorescence Resonance Energy Transfer (TR-FRET) detection.

Jarid1B = Jarid1B (Homo sapiens (Human), UniProt Q9UGL1); assay: Jarid1B in vitro enzyme inhibition assay (TR-FRET)
Sequence of Jarid1B (Q9UGL1 2-751): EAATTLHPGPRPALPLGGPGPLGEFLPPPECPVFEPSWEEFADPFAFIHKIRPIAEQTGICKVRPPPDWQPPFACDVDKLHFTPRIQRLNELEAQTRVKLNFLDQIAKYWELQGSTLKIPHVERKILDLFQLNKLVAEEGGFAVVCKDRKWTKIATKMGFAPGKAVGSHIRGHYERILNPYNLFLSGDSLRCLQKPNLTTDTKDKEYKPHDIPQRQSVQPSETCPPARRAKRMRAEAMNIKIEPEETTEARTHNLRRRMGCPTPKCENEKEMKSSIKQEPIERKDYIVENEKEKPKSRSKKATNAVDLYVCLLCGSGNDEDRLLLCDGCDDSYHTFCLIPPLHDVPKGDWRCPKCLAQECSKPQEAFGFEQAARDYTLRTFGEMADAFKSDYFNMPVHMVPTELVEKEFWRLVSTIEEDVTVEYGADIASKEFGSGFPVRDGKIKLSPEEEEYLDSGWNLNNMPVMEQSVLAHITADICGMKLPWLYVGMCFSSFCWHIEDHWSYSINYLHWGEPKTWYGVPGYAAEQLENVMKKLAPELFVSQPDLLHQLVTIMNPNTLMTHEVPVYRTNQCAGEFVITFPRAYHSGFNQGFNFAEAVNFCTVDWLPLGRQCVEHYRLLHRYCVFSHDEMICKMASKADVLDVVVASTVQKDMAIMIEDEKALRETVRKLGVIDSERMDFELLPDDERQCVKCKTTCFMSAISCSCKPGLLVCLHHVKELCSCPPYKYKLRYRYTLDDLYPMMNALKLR

JMJD2C = JMJD2C (Homo sapiens (Human), UniProt Q9H3R0); assay: JMJD2C in vitro enzyme inhibition assay (TR-FRET)
Sequence of JMJD2C (Q9H3R0 2-372): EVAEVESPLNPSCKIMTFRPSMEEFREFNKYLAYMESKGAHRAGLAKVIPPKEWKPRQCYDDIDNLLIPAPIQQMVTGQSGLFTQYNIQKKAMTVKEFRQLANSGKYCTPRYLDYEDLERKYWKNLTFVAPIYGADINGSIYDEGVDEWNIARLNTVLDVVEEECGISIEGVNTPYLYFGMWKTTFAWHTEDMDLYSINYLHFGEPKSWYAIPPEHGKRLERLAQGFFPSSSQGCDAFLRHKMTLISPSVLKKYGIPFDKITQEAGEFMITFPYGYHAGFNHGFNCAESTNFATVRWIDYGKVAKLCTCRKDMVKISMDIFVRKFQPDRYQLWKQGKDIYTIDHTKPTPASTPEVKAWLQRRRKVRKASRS
Description: Baculovirus expressed JMJD2C (GenBank Accession #BC143571, AA 2-372) was purchased from BPS Bioscience (Cat#50105).
The ability of test compounds to inhibit the activity of JMJD2C was determined in 384-well plate format under the following reaction conditions: 0.3 nM JMJD2C, 300 nM H3K9me3-biotin labeled peptide (Anaspec cat #64360), 2 μM alpha-ketoglutaric acid in assay buffer of 50 mM HEPES, pH7.3, 0.005% Brij35, 0.5 mM TCEP, 0.2 mg/ml BSA, 50 μM sodium L-ascorbate, and 2 μM ammonium iron(II) sulfate. Reaction product was determined quantitatively by TR-FRET after the addition of detection reagent Phycolink Streptavidin-allophycocyanin (Prozyme) and Europium-anti-di-methylated histone H3 lysine 9 (H3K9me2) antibody (PerkinElmer) in the presence of 5 mM EDTA in LANCE detection buffer (PerkinElmer) at a final concentration of 50 nM and 1 nM, respectively.
The assay reaction was initiated by the following: 2 μl of the mixture of 900 nM H3K9me3-biotin labeled peptide and 6 μM alpha-ketoglutaric acid with 2 μl of 11-point serial diluted inhibitor in 3% DMSO were added to each well of the plate, followed by the addition of 2 μl of 0.9 nM JMJD2C to initiate the reaction. The reaction mixture was incubated at room temperature for 30 minutes, and terminated by the addition of 6 μl of 5 mM EDTA in LANCE detection buffer containing 100 nM Phycolink Streptavidin-allophycocyanin and 2 nM Europium-anti-H3K9me2 antibody. Plates were read by EnVisionMultilabel Reader in TR-FRET mode (excitation at 320 nm, emission at 615 nm and 665 nm) after 1 hour incubation at room temperature. A ratio was calculated (665/615) for each well and fitted to determine inhibition constant (IC50).

Sequence of Jarid1A (P29375 1-1090): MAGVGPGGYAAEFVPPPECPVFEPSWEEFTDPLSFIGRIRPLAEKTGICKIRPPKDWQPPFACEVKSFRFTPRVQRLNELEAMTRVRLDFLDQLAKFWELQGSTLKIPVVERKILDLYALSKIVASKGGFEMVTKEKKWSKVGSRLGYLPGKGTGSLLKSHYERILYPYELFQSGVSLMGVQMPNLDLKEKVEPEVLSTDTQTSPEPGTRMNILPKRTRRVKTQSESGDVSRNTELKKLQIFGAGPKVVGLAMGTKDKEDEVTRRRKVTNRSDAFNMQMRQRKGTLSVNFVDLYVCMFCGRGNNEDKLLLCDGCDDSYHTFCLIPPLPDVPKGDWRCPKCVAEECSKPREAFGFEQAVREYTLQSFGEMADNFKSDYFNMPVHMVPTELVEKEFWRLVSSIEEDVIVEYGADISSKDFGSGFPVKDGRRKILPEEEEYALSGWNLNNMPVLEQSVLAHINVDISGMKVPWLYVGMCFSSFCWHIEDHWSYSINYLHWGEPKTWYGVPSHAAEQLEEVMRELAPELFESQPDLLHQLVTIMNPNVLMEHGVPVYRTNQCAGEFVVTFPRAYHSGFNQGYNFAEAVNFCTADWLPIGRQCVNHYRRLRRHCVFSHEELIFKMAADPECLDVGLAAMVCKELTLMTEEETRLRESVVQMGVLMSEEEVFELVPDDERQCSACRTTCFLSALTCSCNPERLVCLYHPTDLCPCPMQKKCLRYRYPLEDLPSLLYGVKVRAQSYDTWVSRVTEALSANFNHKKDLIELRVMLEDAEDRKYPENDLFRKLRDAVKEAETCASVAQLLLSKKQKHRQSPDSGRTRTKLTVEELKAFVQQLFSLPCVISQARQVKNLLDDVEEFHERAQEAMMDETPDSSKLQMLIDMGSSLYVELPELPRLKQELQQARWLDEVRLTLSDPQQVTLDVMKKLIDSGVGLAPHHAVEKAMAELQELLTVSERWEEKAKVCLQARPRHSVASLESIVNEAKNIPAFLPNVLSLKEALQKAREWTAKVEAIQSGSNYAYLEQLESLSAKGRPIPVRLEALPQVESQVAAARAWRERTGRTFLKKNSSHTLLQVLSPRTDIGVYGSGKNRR

Row | Molecule | IC50 (Jarid1A) | IC50 (Jarid1B) | IC50 (JMJD2C)
1 | 2-{5-[(2-methyl-2H-indazol-5-yl)methoxy]-1H-pyrazol-1-yl}pyridine-4-carboxylic acid [Example 51] | < 100 nM | < 100 nM | 100 to 1000 nM
2 | Cc1cccc(-c2ccnn2-c2cc(C(=O)O)ccn2)c1 [Example 13, 2-(5-m-tolyl-1H-pyrazol-1-yl)isonicotinic acid] | 100 to 1000 nM | 100 to 1000 nM | 100 to 1000 nM
3 | O=C(O)c1ccnc(-n2nccc2-c2ccc(F)c(F)c2)c1 [Example 15, 2-(5-(3,4-difluorophenyl)-1H-pyrazol-1-yl)isonicotinic acid] | 100 to 1000 nM | 100 to 1000 nM | 100 to 1000 nM
4 | O=C(O)c1ccnc(-n2nccc2-c2cccc(F)c2)c1 [Example 16, 2-(5-(3-fluorophenyl)-1H-pyrazol-1-yl)isonicotinic acid] | 100 to 1000 nM | 100 to 1000 nM | 100 to 1000 nM
5 | O=C(O)c1ccnc(-n2nccc2-c2ccc(O)cc2)c1 [Example 18, 2-(5-(4-hydroxyphenyl)-1H-pyrazol-1-yl)isonicotinic acid] | 100 to 1000 nM | 100 to 1000 nM | 100 to 1000 nM
6 | CS(=O)(=O)c1ccc(-c2ccnn2-c2cc(C(=O)O)ccn2)cc1 [Example 19, 2-(5-(4-(methylsulfonyl)phenyl)-1H-pyrazol-1-yl)isonicotinic acid] | 100 to 1000 nM | 100 to 1000 nM | 1000 to 10000 nM
7 | COc1cc(-c2ccnn2-c2cc(C(=O)O)ccn2)ccc1C [Example 20, 2-(5-(3-methoxy-4-methylphenyl)-1H-pyrazol-1-yl)isonicotinic acid] | 100 to 1000 nM | 100 to 1000 nM | 1000 to 10000 nM
8 | Cc1ccc(-c2ccnn2-c2cc(C(=O)O)ccn2)cc1O [Example 21, 2-(5-(3-hydroxy-4-methylphenyl)-1H-pyrazol-1-yl)isonicotinic acid] | < 100 nM | < 100 nM | 100 to 1000 nM
9 | COc1cc(-c2ccnn2-c2cc(C(=O)O)ccn2)ccc1Cl [Example 22, 2-(5-(4-chloro-3-methoxyphenyl)-1H-pyrazol-1-yl)isonicotinic acid] | 100 to 1000 nM | 100 to 1000 nM | 1000 to 10000 nM
10 | O=C(O)c1ccnc(-n2nccc2-c2ccc(Cl)c(O)c2)c1 [Example 23, 2-(5-(4-chloro-3-hydroxyphenyl)-1H-pyrazol-1-yl)isonicotinic acid] | 100 to 1000 nM | 100 to 1000 nM | 1000 to 10000 nM
11 | O=C(O)c1ccnc(-n2nccc2-c2ccc3cn[nH]c3c2)c1 [Example 24, 2-[5-(1H-indazol-6-yl)-1H-pyrazol-1-yl]pyridine-4-carboxylic acid] | 100 to 1000 nM | 100 to 1000 nM | 1000 to 10000 nM
12 | O=C(O)c1ccnc(-n2nccc2-c2ccccc2)c1 [Example 26, 2-(5-phenyl-1H-pyrazol-1-yl)isonicotinic acid] | 1000 to 10000 nM | 1000 to 10000 nM | 1000 to 10000 nM
13 | CS(=O)(=O)c1ccc(-c2ccnn2-c2cc(C(=O)O)ccn2)cc1O [Example 28, 2-(5-(3-hydroxy-4-(methylsulfonyl)phenyl)-1H-pyrazol-1-yl)isonicotinic acid] | 100 to 1000 nM | 100 to 1000 nM | 1000 to 10000 nM
14 | Cc1ccc(-c2cc(C)nn2-c2cc(C(=O)O)ccn2)cc1 [Example 29, 2-(3-methyl-5-p-tolyl-1H-pyrazol-1-yl)isonicotinic acid] | 1000 to 10000 nM | 1000 to 10000 nM | 1000 to 10000 nM
15 | CCc1cc(-c2ccc(C)cc2)n(-c2cc(C(=O)O)ccn2)n1 [Example 30, 2-(3-ethyl-5-p-tolyl-1H-pyrazol-1-yl)isonicotinic acid] | 1000 to 10000 nM | 100 to 1000 nM | 1000 to 10000 nM
16 | Cc1ccnn1-c1cc(C(=O)O)ccn1 [Example 31, 2-(5-methyl-1H-pyrazol-1-yl)isonicotinic acid] | 1000 to 10000 nM | 1000 to 10000 nM | 100 to 1000 nM
17 | O=C(O)c1ccnc(-n2nccc2CCc2ccccc2)c1 [Example 34, 2-(5-phenethyl-1H-pyrazol-1-yl)isonicotinic acid] | 1000 to 10000 nM | 1000 to 10000 nM | > 10000 nM
18 | Cc1c(-c2ccccc2)cnn1-c1cc(C(=O)O)ccn1 [Example 36, 2-(5-methyl-4-phenyl-1H-pyrazol-1-yl)isonicotinic acid] | 100 to 1000 nM | 100 to 1000 nM | > 10000 nM
19 | COc1cc(C)nn1-c1cc(C(=O)O)ccn1 [Example 37, 2-(5-methoxy-3-methyl-1H-pyrazol-1-yl)isonicotinic acid] | 1000 to 10000 nM | 1000 to 10000 nM | 1000 to 10000 nM
20 | Cc1cc(OCc2ccccc2)n(-c2cc(C(=O)O)ccn2)n1 [Example 38, 2-(5-(benzyloxy)-3-methyl-1H-pyrazol-1-yl)isonicotinic acid] | 100 to 1000 nM | < 100 nM | 100 to 1000 nM

Row | Molecule | IC50 (Jarid1A) | IC50 (Jarid1B) | IC50 (JMJD2C)
21 | O=C(O)c1ccnc(-n2nccc2OCc2cccc(F)c2)c1 [Example 41, 2-{5-[(3-fluorobenzyl)oxy]-1H-pyrazol-1-yl}pyridine-4-carboxylic acid] | < 100 nM | < 100 nM | < 100 nM
22 | COc1cccc(COc2ccnn2-c2cc(C(=O)O)ccn2)c1 [Example 42, 2-{5-[(3-methoxybenzyl)oxy]-1H-pyrazol-1-yl}pyridine-4-carboxylic acid] | < 100 nM | < 100 nM | < 100 nM
23 | COc1ccc(COc2ccnn2-c2cc(C(=O)O)ccn2)cc1 [Example 43, 2-{5-[(4-methoxybenzyl)oxy]-1H-pyrazol-1-yl}pyridine-4-carboxylic acid] | < 100 nM | < 100 nM | 100 to 1000 nM
24 | CCCCc1ccnn1-c1cc(C(=O)O)ccn1 [Example 44, 2-(5-butyl-1H-pyrazol-1-yl)pyridine-4-carboxylic acid] | 1000 to 10000 nM | 1000 to 10000 nM | > 10000 nM
25 | CCCCc1ccn(-c2cc(C(=O)O)ccn2)n1 [Example 45, 2-(3-butyl-1H-pyrazol-1-yl)pyridine-4-carboxylic acid] | 100 to 1000 nM | 100 to 1000 nM | 100 to 1000 nM
26 | O=C(O)c1ccnc(-n2nccc2-c2ccc(Br)cc2)c1 [Example 46, 2-[5-(4-bromophenyl)-1H-pyrazol-1-yl]pyridine-4-carboxylic acid] | 100 to 1000 nM | 100 to 1000 nM | 1000 to 10000 nM
27 | CN(C)c1ccc(-c2ccnn2-c2cc(C(=O)O)ccn2)cc1 [Example 47, 2-{5-[4-(dimethylamino)phenyl]-1H-pyrazol-1-yl}pyridine-4-carboxylic acid] | 100 to 1000 nM | 100 to 1000 nM | 1000 to 10000 nM
28 | Cc1ccc(-c2cc(N)nn2-c2cc(C(=O)O)ccn2)cc1 [Example 48, 2-[3-amino-5-(4-methylphenyl)-1H-pyrazol-1-yl]pyridine-4-carboxylic acid] | < 100 nM | 100 to 1000 nM | 1000 to 10000 nM
29 | O=C(O)c1ccnc(-n2nccc2OCc2ccc(F)c(F)c2)c1 [Example 52, 2-{5-[(3,4-difluorobenzyl)oxy]-1H-pyrazol-1-yl}pyridine-4-carboxylic acid] | < 100 nM | < 100 nM | 100 to 1000 nM
30 | O=C(O)c1ccnc(-n2nccc2OCc2ccc(Cl)cc2)c1 [Example 53, 2-{5-[(4-chlorobenzyl)oxy]-1H-pyrazol-1-yl}pyridine-4-carboxylic acid] | < 100 nM | < 100 nM | < 100 nM
31 | O=C(O)c1ccnc(-n2nccc2OCc2ccc(C(F)(F)F)cc2)c1 [Example 54, 2-(5-{[4-(trifluoromethyl)benzyl]oxy}-1H-pyrazol-1-yl)pyridine-4-carboxylic acid] | < 100 nM | < 100 nM | 100 to 1000 nM
32 | O=C(O)c1ccnc(-n2nccc2OCc2cccc(Cl)c2)c1 [Example 58, 2-{5-[(3-chlorobenzyl)oxy]-1H-pyrazol-1-yl}pyridine-4-carboxylic acid] | < 100 nM | < 100 nM | < 100 nM
33 | O=C(O)c1ccnc(-n2nccc2OCc2ccccc2F)c1 [Example 59, 2-{5-[(2-fluorobenzyl)oxy]-1H-pyrazol-1-yl}pyridine-4-carboxylic acid] | < 100 nM | < 100 nM | < 100 nM
34 | O=C(O)c1ccnc(-n2nccc2OCc2cccnc2)c1 [Example 60, 2-[5-(pyridin-3-ylmethoxy)-1H-pyrazol-1-yl]pyridine-4-carboxylic acid] | < 100 nM | < 100 nM | 100 to 1000 nM
35 | O=C(O)c1ccnc(-n2nccc2OCc2ccncc2)c1 [Example 61, 2-[5-(pyridin-4-ylmethoxy)-1H-pyrazol-1-yl]pyridine-4-carboxylic acid] | < 100 nM | < 100 nM | < 100 nM
36 | O=C(O)c1ccnc(-n2nccc2OCC2CCC(F)(F)CC2)c1 [Example 71, 2-{5-[(4,4-difluorocyclohexyl)methoxy]-1H-pyrazol-1-yl}pyridine-4-carboxylic acid] | < 100 nM | < 100 nM | 100 to 1000 nM
37 | O=C(O)c1ccnc(-n2nccc2OCc2cccc(O)c2)c1 [Example 73, 2-{5-[(3-hydroxybenzyl)oxy]-1H-pyrazol-1-yl}pyridine-4-carboxylic acid] | < 100 nM | < 100 nM | < 100 nM
38 | O=C(O)c1ccnc(-n2nccc2OCc2ccc(Cl)cc2F)c1 [Example 75, 2-{5-[(4-chloro-2-fluorobenzyl)oxy]-1H-pyrazol-1-yl}pyridine-4-carboxylic acid] | < 100 nM | < 100 nM | < 100 nM
39 | O=C(O)c1ccnc(-n2nccc2OCc2ccc(F)c(Cl)c2)c1 [Example 76, 2-{5-[(3-chloro-4-fluorobenzyl)oxy]-1H-pyrazol-1-yl}pyridine-4-carboxylic acid] | < 100 nM | < 100 nM | < 100 nM
40 | O=C(O)c1ccnc(-n2nccc2OCc2ccc(C3CC3)cc2)c1 [Example 77, 2-{5-[(4-cyclopropylbenzyl)oxy]-1H-pyrazol-1-yl}pyridine-4-carboxylic acid] | < 100 nM | < 100 nM | 100 to 1000 nM
